Measurements reported in US20030224942A1, “Alkylamino-1,3,5-triazines, processes for their preparation and their use as herbicides and plant growth regulators” (priority 2001, published 2003).

How the values were obtained:
[1] = system: Chenopodium spp., Papaver spp., Polygonum spp., Veronica spp. or Viola spp.; test: Post-emergence effect on weeds (greenhouse pot test, visual scoring); format: in vivo, monocotyledonous and dicotyledonous weeds; conditions: treated at three-leaf stage; visual scoring after about 3 to 4 weeks; application rate of 0.5 kg and less of active substance per hectare
[2] = system: Cyperus spp., Echinochloa spp., Digitaria spp., Sagitaria spp. and Scirpus spp.; test: Action on harmful plants in rice (paddy rice conditions, visual scoring); format: in vivo, typical rice weeds (gramineous and broad-leaved); conditions: applied into the dammed water, visual scoring about three weeks after application
Procedure, shortened: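 Rice and typical gramineous and broad-leaved rice weeds grown in closed pots in greenhouse under paddy conditions (2-3 cm water) to three-leaf stage (Echinochloa crus-galli 1.5-leaf), then treated with compounds. Plants kept under optimum greenhouse conditions throughout; effect scored visually.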

Row | Structure (SMILES) | herbicidal activity post-emergence against harmful plants [1] | herbicidal activity against harmful plants which are typical for rice crops [2]
1 | CCC(F)c1nc(N)nc(NC(c2cccc(C(F)=C(F)F)c2)C2CC2)n1 (stereo not shown) [Product P29.1567] | very good herbicidal activity | very good herbicidal activity
2 | C#Cc1cccc(CNc2nc(N)nc(C(F)CC)n2)c1 (stereo not shown) [Product P26.1579] | very good herbicidal activity | very good herbicidal activity
3 | CC(Nc1nc(N)nc(C(C)(C)F)n1)c1cc(F)c(C2CC2)c(F)c1 (stereo not shown) [Product P17.960] | very good herbicidal activity | very good herbicidal activity
4 | C#Cc1cccc(CNc2nc(N)nc(CC)n2)c1 [Product P6.1579] | very good herbicidal activity | very good herbicidal activity
5 | Cc1nc(N)nc(NC(C)c2cc(F)c(C3CC3)c(F)c2)n1 (stereo not shown) [Product P2.960] | very good herbicidal activity | very good herbicidal activity
6 | C#Cc1c(F)cc(C(C)Nc2nc(C)nc(N)n2)cc1F (stereo not shown) [Product P2.352] | very good herbicidal activity | very good herbicidal activity
7 | CC(C)(F)c1nc(N)nc(NC(c2cccc(C(F)=C(F)F)c2)C2CC2)n1 (stereo not shown) [Product P19.1567] | very good herbicidal activity | very good herbicidal activity
8 | CC#Cc1ccc(C(C)Nc2nc(N)nc(C(C)F)n2)cc1 (stereo not shown) [Product P22.1583] | very good herbicidal activity | very good herbicidal activity
9 | CC(F)c1nc(N)nc(NC(c2cccc(C3CC3)c2)C2CC2)n1 (stereo not shown) [Product P24.1603] | very good herbicidal activity | very good herbicidal activity
10 | Cc1nc(N)nc(NC(c2cccc(C(F)=C(F)F)c2)C2CC2)n1 (stereo not shown) [Product P4.1567] | very good herbicidal activity | very good herbicidal activity
11 | C#Cc1cc(CNc2nc(N)nc(CC)n2)ccc1F [Product P6.309] | very good herbicidal activity | very good herbicidal activity
12 | C#Cc1cc(CNc2nc(C)nc(N)n2)ccc1F [Product P1.309] | very good herbicidal activity | very good herbicidal activity
13 | CC(F)C#Cc1cc(C(C)Nc2nc(N)nc(C(C)(C)F)n2)ccc1F (stereo not shown) [Product P17.764] | very good herbicidal activity | very good herbicidal activity
14 | CC#Cc1c(F)cc(C(C)Nc2nc(N)nc(CC)n2)cc1F (stereo not shown) [Product P7.428] | very good herbicidal activity | very good herbicidal activity
15 | CC#Cc1ccc(C(C)Nc2nc(N)nc(CC)n2)cc1 (stereo not shown) [Product P7.1583] | very good herbicidal activity | very good herbicidal activity
16 | CC#Cc1cccc(C(Nc2nc(N)nc(C(F)CC)n2)C2CC2)c1 (stereo not shown) [Product P29.1582] | very good herbicidal activity | very good herbicidal activity
17 | CC(C)c1nc(N)nc(NCc2ccc(C3CC3)cc2)n1 [Product P11.1604] | very good herbicidal activity | very good herbicidal activity
18 | CC#Cc1c(F)cc(CNc2nc(N)nc(CC)n2)cc1F [Product P6.428] | very good herbicidal activity | very good herbicidal activity
19 | CC#Cc1ccc(C(C)Nc2nc(N)nc(C(C)(C)F)n2)cc1 (stereo not shown) [Product P17.1583] | very good herbicidal activity | very good herbicidal activity
20 | CCCCC#Cc1ccc(C(C)Nc2nc(N)nc(C(C)(C)F)n2)cc1 (stereo not shown) [Product P17.1595] | very good herbicidal activity | very good herbicidal activity
21 | CC(F)c1nc(N)nc(NC(c2ccc(C3CC3)cc2)C2CC2)n1 (stereo not shown) [Product P24.1604] | very good herbicidal activity | very good herbicidal activity

Row | Structure (SMILES) | herbicidal activity post-emergence against harmful plants [1] | herbicidal activity against harmful plants which are typical for rice crops [2]
22 | CC(C)c1nc(N)nc(NC(c2ccc(C3CC3)cc2)C2CC2)n1 (stereo not shown) [Product P14.1604] | very good herbicidal activity | very good herbicidal activity
23 | C#Cc1cc(C(C)Nc2nc(N)nc(C(C)(C)F)n2)ccc1F (stereo not shown) [Product P17.309] | very good herbicidal activity | very good herbicidal activity
24 | C#Cc1c(F)cc(C(Nc2nc(N)nc(C(C)(C)F)n2)C2CC2)cc1F (stereo not shown) [Product P19.352] | very good herbicidal activity | very good herbicidal activity
25 | CC#Cc1c(F)cc(C(C)Nc2nc(N)nc(C(C)(C)F)n2)cc1F (stereo not shown) [Product P17.428] | very good herbicidal activity | very good herbicidal activity
26 | CC#Cc1cc(C(Nc2nc(N)nc(C(C)(C)F)n2)C2CC2)ccc1F (stereo not shown) [Product P19.384] | very good herbicidal activity | very good herbicidal activity
27 | CC(F)c1nc(N)nc(NC(C)c2ccc(F)c(C(F)=C(F)F)c2)n1 (stereo not shown) [Product P22.5] | very good herbicidal activity | very good herbicidal activity
28 | CC#Cc1ccc(C(C)Nc2nc(N)nc(C(F)CC)n2)cc1 (stereo not shown) [Product P27.1583] | very good herbicidal activity | very good herbicidal activity
29 | Cc1nc(N)nc(NCc2ccc(C(F)=C(F)F)cc2)n1 [Product P1.1568] | very good herbicidal activity | very good herbicidal activity
30 | CC(O)C#Cc1ccc(C(C)Nc2nc(N)nc(C(C)F)n2)cc1 (stereo not shown) [Product P22.1601] | very good herbicidal activity | very good herbicidal activity
31 | CCC(F)c1nc(N)nc(NC(C)c2ccc(C#CC(C)O)cc2)n1 (stereo not shown) [Product P27.1601] | very good herbicidal activity | very good herbicidal activity
32 | C#Cc1cc(C(C)Nc2nc(N)nc(C(C)F)n2)ccc1F (stereo not shown) [Product P22.309] | very good herbicidal activity | very good herbicidal activity
33 | CCc1nc(N)nc(NC(C)c2ccc(C(F)=C(F)F)cc2)n1 (stereo not shown) [Product P7.1568] | very good herbicidal activity | very good herbicidal activity
34 | CCc1nc(N)nc(NC(C)c2ccc(F)c(C#CC(C)O)c2)n1 (stereo not shown) [Product P7.840] | very good herbicidal activity | very good herbicidal activity
35 | Cc1nc(N)nc(NC(C)c2ccc(F)c(C(F)=C(F)F)c2)n1 (stereo not shown) [Product P2.5] | very good herbicidal activity | very good herbicidal activity
36 | CC#Cc1ccc(CNc2nc(N)nc(C(C)(C)F)n2)cc1 [Product P16.1583] | very good herbicidal activity | very good herbicidal activity
37 | CC#Cc1cccc(C(C)Nc2nc(N)nc(C(C)(C)F)n2)c1 (stereo not shown) [Product P17.1582] | very good herbicidal activity | very good herbicidal activity
38 | C=C=Cc1c(F)cc(C(C)Nc2nc(N)nc(C(C)(C)F)n2)cc1F (stereo not shown) [Product P17.656] | very good herbicidal activity | very good herbicidal activity
39 | CCc1nc(N)nc(NC(C)c2ccc(C3CC3)cc2)n1 (stereo not shown) [Product P7.1604] | very good herbicidal activity | very good herbicidal activity
40 | CC(C)(F)c1nc(N)nc(NCc2ccc(C(F)=C(F)F)cc2)n1 [Product P16.1568] | very good herbicidal activity | very good herbicidal activity
41 | CC(O)C#Cc1cccc(C(C)Nc2nc(N)nc(C(C)(C)F)n2)c1 (stereo not shown) [Product P17.1600] | very good herbicidal activity | very good herbicidal activity
